Experiment [1] deals with HIV-1 virus. As to the kind of experiment: Action of the products on the cytopathogenic effect of the HIV-1 virus in MT4 cells. As to conditions: for minimal effective concentration: Human immunodeficiency virus 1, MT4, 168 h. Format: cell-based, HIV-1 virus (LAV strain). How it is done: Each product was dissolved in DMSO at a concentration of 10^-3 M (stock solution), then in the culture medium immediately before use. The solution thus obtained was sterilized by filtration on a 0.22μ Millipore, then successive dilutions were made in the culture medium.
The line of MT4 cells is cultivated at a concentration of 3×10^5 cells/ml in a RPM1640 medium containing 10% of fetal calf serum, 1% of antibiotics and 1% of glummine.
The action of the products on the cytopathogenic effect of the HIV-1 virus was studied with the aid of the line of MT4 cells. This line is a line of human T cells transformed by the HTLV-1 virus. These cells are particularly sensitive to the HIV-1 virus since 6 to 7 days after superinfection by tiny quantities of HIV-1 virus, they show a considerable cytopathogenic effect leading to the death of 10 to 80% of the cells. The cytopathogenic effect is directly correlated with the infection of the cells by the virus, with its intracellular replication and with the expression of the viral antigens by the cells. An inhibition of this effect thus corresponds to an inhibition of the multiplication of the HIV-1 virus.
It is a question of supernatants of lymphoblastoid T cells (CEM line) infected by the HIV-1 virus (LAV strain). The activity of the undiluted viral preparation used for the human lymphocytes was 20000 cpm/ml.
d) Action of the products on the cytopathogenic effect of the HIV-1 virus in the case of the MT4 cells. Study of the treatment after viral absorption.
The MT4 cells were infected by 100 μl of HIV-1 virus for 3.10^5 cells in a volume of 1 ml. […]
At day +3, the cell suspensions were restored to 3.10^5 cells/ml after dilution with fresh medium. The product was added at the corresponding doses.
At day +7, the cytopathogenic effect was evaluated with the microscope after staining with trypan blue.
For orientation: Damage to the host cells serves as the signal in cytopathic effect assays.

Experiment [2] concerns recombinant retrovirus of murine origin (MoMLV). The experiment is described as follows: Residual virus (clones of βgal+ cells) after infection of mouse 3T3 test cells with LacZ recombinant MoMLV retrovirus. Format: cell-based. To be noted: 3T3 cells; for residual virus (% not inhibited) at 10 µM: 10^-5 M; for residual virus (% not inhibited) at 1 µM: 10^-6 M. How it is done: The virus used is a recombinant retrovirus of murine origin (MoMLV) in which a reporter gene (LacZ) has been introduced.
Fixed amounts of LacZ recombinant retroviruses are placed in the presence of mouse infectable test cells (3T3) with or without the product to be tested. To each recombinant retrovirus corresponds a clone of β gal^+ cells. The number of clones of βgal^+ cells is read 48 hours after the infection. The % of the residual virus (not inhibited by the product) is indicated in the following table (mean of several independent experiments): […]

Experiment [3] concerns HIV-1 virus. The experiment is described as follows: Infection of activated lymphocytes by the lysates of infected macrophages (co-culture, reverse transcriptase activity). Format: cell-based. Here is the method: (§1) The drugs 6651, AZT, 6714 and ddT were diluted in DMSO.
(§2) The virus HIV-1 utilized is derived from a culture supernatant of CEM-LAV 1 cells; these latter are maintained by the addition at each passage (every 3 or 4 days) of uninfected CEM cells. The titre of the virus in the clarified culture supernatant is higher than 10^6 cpm/ml in reverse transcriptase activity and 10^3 infectious units/ml on lymphocytes of sero-negative donors.
The lymphocytes were isolated from the peripheral blood of sero-negative donors on a Ficoll^R gradient (MSL, Eurobio). The lymphocytes thus obtained were stimulated with the phytohemaglutinin p(PHA-p) for 3 days before their utilization.
The lymphocytes are cultivated in RPMI 1640 medium, supplemented with 10% of fetal calf serum, 10% of interleukin 2, 2 μg/ml of polybrene, 1% of glutamine, 1% of antibiotics.
(§3) The macrophages were obtained from a deleucocytation pocket. The mononucleated cells were separated on a Ficoll^R gradient. The cells were adjusted to 50.10^6 cells/ml in the RPMI 1640 medium (MBA) containing 20% fetal calf serum (Flow), 10 mM Hepes (Sigma), 1% of PSN and 1% of glutamine (Gibco). After 1 h of incubation at 4° C. with gentle shaking, the macrophages agglutinate among themselves. The agglutinated macrophages are sedimented for 15 mn at 4° C. The supernatant containing an enrichment in lymphocytes was removed and the pellet enriched in macrophages was diluted to 5.10^6 cells/ml in the medium previously described. The cell suspension was then placed in Petri dishes of 60 mm diameter and placed at 37° C. for 1 h 30. The unattached cells are removed and the washed cell carpet was then detached with a scraper. The cells thus recovered were used directly for the study.
(§4) For this study, the production of HIV-1 virus by infected macrophages in the presence or absence of the drugs 6714 or ddT and 6651 or AZT were monitored either in continuous culture for at least 30 days or after lysis of the macrophages at day +14 and infection of lymphocytes by this lysate.
The quantity of cells placed in culture and the conditions of infection are identical with those previously described.
At day 14 after infection, the macrophages were lysed by two successive freezings to -20° C. and thawings at 37° C. The lysate recovered was then utilized as inoculum to infect 3.10^6 activated lymphocytes derived from a sero-negative donor. After 1 h of absorption, the lymphocytes were adjusted to 10^6 cells per ml and the drugs were added at the concentrations corresponding to those of the lysate.
The lymphocytes were subcultured every 3 or 4 days and an assay of the reverse transcriptase was carried out starting from the culture supernatant at each passage.
(§5) 3) Measurement of the reverse transcriptase activity
(§6) The reverse transcriptase activity is assayed starting from 1 ml of culture supernatant concentrated 100 times by ultra-centrifugation for 5 mn at 95.000 rpm (Rotor TL 100^R Beckman).
(§7) The pellet is resuspended in 10 μl of NTE Triton^R ×100 0.1%.
(§8) After 1 h at 37° C., the acid-insoluble products are precipitated by 20% trichloroacetic acid, filtered onto 0.45μ Millipore^R and the B radioactivity is measured with the aid of a Kontron scintillation counter.

The subject of experiment [4] is HIV-1 virus. As to the kind of experiment: Replication of HIV-1 in macrophages of sero-negative donors, continuous culture (reverse transcriptase activity). Format: cell-based. Here is the method:
as §1, §2, §3, §4
For each test, 15.10^6 cells were or were not infected with the HIV-1 virus (6000 cpm/10^6 cells). After 1 h of absorption at 37° C., the cells were placed in 6-wells Costar plates and 5.10^-5 M or 10^-5 M of the drugs 6714 and ddT and 10^-5 M, 10^-6 M or 10^-7 M of the drugs 6651 and AZT were added to the culture medium. The medium was changed every 3 or 4 days and the reverse transcriptase activity was determined in the culture supernatant. The drugs were added at each passage to the culture medium at the respective concentrations indicated above.
as §5, §6, §7, §8

[5] abbreviates: NIH3T3, 48 hours after infection, mean of several experiments, read-out: % of the residual virus (not inhibited by the product).

Read-outs that look alike come from different tables or passages of the source.

`CCCCCCCCCCCCCCCCOP(=O)(OC[C@H]1OC(O)[C@H](O)[C@@H](O)[C@@H]1O)OC[C@H]1O[C@@H](n2cc(C)c(=O)[nH]c2=O)C[C@@H]1N=[N+]=[N-]` (stereo partly drawn) [compound 6651, 6-glucosyl hexadecyl 5'-(3'-azido) thymidinyl phosphate]: the “Cytopathogenic Effect at Day +7” value in experiment [1] (5 × 10^-6 M, Experiment No. 1) is “-”; in experiment [1] (5 × 10^-6 M, Experiment No. 2), “+ (100% death of the cells at day +7)”; in experiment [1] (5 × 10^-7 M, Experiment No. 1) it was “+ (100% death of the cells at day +7)”; in experiment [1] (5 × 10^-7 M, Experiment No. 2), “+ (100% death of the cells at day +7)”; in experiment [1] (10^-5 M, Experiment No. 1), “-”; in experiment [1] (10^-5 M, Experiment No. 2) it was “-”. Besides, the “Cytopathogenic Effect at Day +7” value in experiment [1] (10^-6 M, Experiment No. 1) is listed as “-”; in experiment [1] (10^-6 M, Experiment No. 2) it was “+ (100% death of the cells at day +7)”. Further, the minimal effective concentration in experiment [1] (first experiment, MT4 cells, read-out: concentration at which the product inhibits the cytopathogenic effect) is 1 µM; in experiment [1] (second experiment, MT4 cells, read-out: concentration at which the product inhibits the cytopathogenic effect), 10 µM. Besides, the residual virus (% not inhibited) at 100 µM in experiment [2] (NIH3T3, 10^-4 M, 48 hours after infection, mean of several experiments, read-out: % of the residual virus (not inhibited by the product)) turned out to be 11%. In experiment [2] (setting [5]), the residual virus (% not inhibited) at 10 µM was 65%. For the same compound, the residual virus (% not inhibited) at 1 µM in experiment [2] (setting [5]) came to 94%. Further, the “viral production on the lymphocytes with the lysates of treated macrophages” value in experiment [3] (10^-5 M and 10^-6 M (FIG. 4c)) is reported as “no viral production is obtained on the lymphocytes”; in experiment [3] (10^-7 M (FIG. 4c)) it was “A low viral production is observed”. In experiment [3] (10^-5 M and 10^-6 M, same result as AZT (no multiplication)), the “multiplication of the HIV-1 virus at the interior of the macrophage” value is “this same result is obtained”. Also, the “multiplication of the HIV-1 virus in the macrophages” value in experiment [3] (10^-7 M) is recorded as “there is multiplication of the HIV-1 virus in the macrophages, but the escape of the virus seems to be blocked”. For the same compound, in experiment [4] (10^-5 M, 10^-6 M and 10^-7 M), the “proliferation of the HIV-1 virus in the macrophages” value is “block the proliferation of the HIV-1 virus in the macrophages”.

Take `Cc1cn([C@H]2CC[C@@H](COP(=O)(O)OC[C@H]3OC(O)[C@H](O)[C@@H](O)[C@@H]3O)O2)c(=O)[nH]c1=O` (stereo partly drawn) [compound 6714, 6-glucosyl 5'-(3'-deoxy)-thymidinyl phosphate]: the “Cytopathogenic Effect at Day +7” value is given as “+ (100% death of the cells at day +7)” in experiment [1] (5 × 10^-6 M, Experiment No. 2); “-” in experiment [1] (10^-5 M, Experiment No. 2); “+ (100% death of the cells at day +7)” in experiment [1] (10^-6 M, Experiment No. 2). For the same compound, the minimal effective concentration in experiment [1] (read-out: concentration at which the product inhibits the cytopathogenic potency of the virus) amounted to 10 µM. Also, the residual virus (% not inhibited) at 10 µM in experiment [2] (setting [5]) is 4%. Besides, the residual virus (% not inhibited) at 1 µM in experiment [2] (setting [5]) was 12%. Further, in experiment [2] (NIH3T3, 10^-7 M, 48 hours after infection, mean of several experiments, read-out: % of the residual virus (not inhibited by the product)), the residual virus (% not inhibited) at 0.1 µM came out at 66%. In addition, the “retroviral activity (in words)” value in experiment [2] (recombinant MoMLV) is listed as “active by themselves”. The “viral production by activated lymphocytes with lysates of infected treated macrophages (general statement)” value in experiment [3] (lysate at day 14) is “make it possible to obtain a vital production by activated lymphocytes”. In experiment [3] (whatever the concentration tested (5.10^-5 M, 10^-5 M)), the “viral production by activated lymphocytes, compared to untreated lysate” value is “comparable to the untreated lysate”. In addition, the “multiplication of the HIV-1 virus in the macrophages” value in experiment [3] (whatever the concentration tested, 5.10^-6 M or 10^-5 M) is “there is multiplication of the HIV-1 virus in the macrophages, but the escape of the virus seems to be blocked”. Moreover, the “proliferation of the HIV-1 virus in the macrophages” value in experiment [4] (5.10^-5 M and 10^-5 M) is given as “block the proliferation of the HIV-1 virus in the macrophages”.

Values taken from patent US5393744A, “Glucosyl phosphotriesters of thymidine” (Institut Pasteur, priority 1988, dated 1995).
